According to US20070161648A1, “Substituted dihydro-isoindolones useful in treating kinase disorders” (priority 2005, published 2007):

Assays:
A375 malignant melanoma = experiment: Cell proliferation inhibition assay (14C-thymidine incorporation), A375; format: cell-based; details: Homo sapiens, A-375
From the text: (§1) The ability of a test compound to inhibit unregulated cell proliferation may be determined by measuring incorporation of ^14C-labelled thymidine into newly synthesized DNA within cell lines derived from carcinomas originating from several tissues. Accordingly, the effect of a test compound on proliferation of cells with a variety of phenotypes may be determined.
(§2) Carcinoma cell lines used include the HeLa cervical adenocarcinoma from the American Type Culture Collection (ATCC Cat. #CCL2), A375 malignant melanoma (ATCC Cat. #CRL-1619) and HCT-116 colon carcinoma (ATCC Cat. #CCL-247).
(§3) The carcinoma cells are trypsinized and counted. The cells (3000-8000 count) are added to each well of a 96-well CytoStar tissue culture treated scintillating microplate (Amersham #RPNQO160) in complete medium (100 μL) and the plate is then incubated in complete medium for 24 hrs at 37° C. in an inert atmosphere containing 5% CO2.
(§4) Test compound (1 μL) in 100% DMSO is added to the plate test-wells with DMSO only added to control-wells. The plate is incubated in complete medium for a second 24 hr period at 37° C. in an atmosphere containing 5% CO2.
(§5) An aliquot of a solution of Methyl ^14C-thymidine (56 mC/mmol) (NEN #NEC568 or Amersham #CFA532) and complete medium (20 uL to provide 0.2 μCi/well) is then added to each well and the plate is incubated for a third 24 hr period at 37° C. in an atmosphere containing 5% CO2.
(§6) The plate contents are then discarded, the plate is washed twice with PBS (200 μL) and then PBS (200 μL) is added to each well. The plate is sealed and the degree of methyl ^14C-thymidine incorporation is quantified on a Packard Top Count.
(§7) For a series of test concentrations, the IC50 was derived by graphing percent inhibition against the log of the concentrations tested for a given compound with results shown in Table 2.

[1] = test system: HeLa cervical adenocarcinoma; experiment: Cell proliferation inhibition assay (14C-thymidine incorporation), HeLa; format: cell-based; details: Homo sapiens
From the text: as §1, §2, §3, §4, §5, §6, §7

VEGF-R2 kinase domain = biological target: T1, VEGF-R2 kinase domain (Rattus norvegicus, UniProt O08775); experiment: VEGF-R2 screening assay (33P-ATP FlashPlate kinase assay); format: biochemical; details: for IC50: 10 μM ATP
T1 construct: polyhistidine (N)
T1 sequence (O08775 786-1343): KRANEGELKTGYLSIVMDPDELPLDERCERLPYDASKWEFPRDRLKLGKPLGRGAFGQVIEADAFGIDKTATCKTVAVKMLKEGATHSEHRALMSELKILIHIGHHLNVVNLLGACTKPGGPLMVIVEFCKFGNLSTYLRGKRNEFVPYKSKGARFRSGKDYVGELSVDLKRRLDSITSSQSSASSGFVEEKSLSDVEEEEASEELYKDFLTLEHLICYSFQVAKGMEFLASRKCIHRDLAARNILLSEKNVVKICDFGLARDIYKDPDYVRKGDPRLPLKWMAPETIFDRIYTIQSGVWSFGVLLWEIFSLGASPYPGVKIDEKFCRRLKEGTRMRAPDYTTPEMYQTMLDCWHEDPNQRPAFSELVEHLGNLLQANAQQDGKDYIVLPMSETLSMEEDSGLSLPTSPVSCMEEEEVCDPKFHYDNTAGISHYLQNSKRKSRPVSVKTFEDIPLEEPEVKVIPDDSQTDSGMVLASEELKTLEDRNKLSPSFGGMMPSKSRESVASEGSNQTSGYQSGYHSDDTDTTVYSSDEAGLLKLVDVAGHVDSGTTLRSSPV
Experimental: (§8) 70 μL of the kinase reaction mixture was dispensed into the well of a streptavidin coated FlashPlate™ (Cat. # SMP103, NEN, Boston, Mass.).
(§9) Test compound stock in 100% DMSO (1 μL) was added to the wells resulting in a final concentration of 1% DMSO in the reaction with a 100 μL final reaction volume. Each enzyme was diluted in 50 mM Tris-HCl pH=8.0, 0.1% BSA and 30 μL was added to each well to initiate the reaction. The reaction was incubated for one hour at 30° C. At the end of the 1 hr incubation, the reaction was terminated by aspirating the mixture from the plate and washing the wells twice with PBS containing 100 mM EDTA. The biotinylated peptide substrate became immobilized on the Flashplate™ and the incorporation of ^33P-γ-ATP was measured by reading the plate on a scintillation counter. Inhibition of the enzymatic activity was measured by observing a reduced amount of ^33P-γ-ATP incorporated into the immobilized peptide.
The assay used 150 ng of the N-terminal biotinylated peptide biotin-[…]-amide (VEGF-R2) per well.
(§10) A maximum and minimum signal for the assay was determined on each plate. The percent inhibition of a test compound was calculated according to the formula: [formula]

Aurora-A = biological target: T2, Aurora-A (Mus musculus, UniProt P97477); experiment: Aurora-A screening assay (33P-ATP FlashPlate kinase assay); format: biochemical, murine; details: for IC50: 10 μM ATP
T2 construct: followed by the full length protein encoding the murine Aurora-A; polyhistidine (N); made in house; host or cells: Sf9 insect cells
T2 sequence (P97477 1-395): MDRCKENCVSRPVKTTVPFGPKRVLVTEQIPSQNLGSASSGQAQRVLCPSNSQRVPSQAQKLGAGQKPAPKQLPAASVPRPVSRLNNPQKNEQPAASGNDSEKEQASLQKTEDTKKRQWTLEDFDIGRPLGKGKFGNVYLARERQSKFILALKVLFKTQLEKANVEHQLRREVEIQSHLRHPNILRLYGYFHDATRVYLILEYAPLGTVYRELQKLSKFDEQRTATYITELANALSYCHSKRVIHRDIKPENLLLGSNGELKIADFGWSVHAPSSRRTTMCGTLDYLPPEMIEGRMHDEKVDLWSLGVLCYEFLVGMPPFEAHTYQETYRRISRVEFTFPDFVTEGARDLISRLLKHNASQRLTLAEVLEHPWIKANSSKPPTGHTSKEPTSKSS
Experimental: as §8, §9
Aurora-A is a fusion protein containing a polyhistidine tag at the N terminus followed by the full length protein encoding the murine Aurora-A (Accession number GB BC014711) expressed and purified from sf9 insect cells. The assay used 400 ng of the N-terminal biotinylated peptide biotin-[…]-amide (Aurora-A) per well.
as §10

HCT-116 colon carcinoma = experiment: Cell proliferation inhibition assay (14C-thymidine incorporation), HCT116; format: cell-based; details: Homo sapiens
From the text: as §1, §2, §3, §4, §5, §6, §7

Row | Compound | IC50 (A375 malignant melanoma) [µM] | IC50 [1] [µM] | IC50 (VEGF-R2 kinase domain) [µM] | IC50 (Aurora-A) [µM] | IC50 (HCT-116 colon carcinoma) [µM] | inhibition at 100 µM (VEGF-R2 kinase domain; single test concentration 100 μM, read-out: VEGF-R2 percent inhibition) [%] | inhibition at 100 µM (Aurora-A; single test concentration 100 μM, read-out: Aurora-A percent inhibition) [%]
1 | CC(C)(C)OC(=O)n1c(-c2cccc3c2C(=O)NC3)cc2cc(OCCN3CCCCC3)ccc21 [Cpd 29, 2-(3-oxo-2,3-dihydro-1H-isoindol-4-yl)-5-(2-piperidin-1-yl-ethoxy)-indole-1-carboxylic acid tert-butyl ester] | 4.14 | 14.6 |  |  | > 1 | 63 | 58
2 | O=C1NCc2cccc(-c3cc4cc(OCCN5CCCCC5)ccc4[nH]3)c21 [Cpd 10, 7-[5-(2-piperidin-1-yl-ethoxy)-1H-indol-2-yl]-2,3-dihydro-isoindol-1-one] | 0.437 | 4.63 | 0.056 | 0.2 | 2.34 |  | 

Next, values leading:

Row | IC50 (A375 malignant melanoma) [µM] | IC50 [1] [µM] | IC50 (VEGF-R2 kinase domain) [µM] | IC50 (Aurora-A) [µM] | IC50 (HCT-116 colon carcinoma) [µM] | inhibition at 100 µM (VEGF-R2 kinase domain; single test concentration 100 μM, read-out: VEGF-R2 percent inhibition) [%] | inhibition at 100 µM (Aurora-A; single test concentration 100 μM, read-out: Aurora-A percent inhibition) [%] | Compound
3 | 0.763 | 3.35 | 0.018 | 0.061 | 2.26 |  |  | O=C1NCc2cccc(-c3cc4cc(OCCCN5CCC(CO)CC5)ccc4[nH]3)c21 [Cpd 2, 7-{5-[3-(4-hydroxymethyl-piperidin-1-yl)-propoxy]-1H-indol-2-yl}-2,3-dihydro-isoindol-1-one]
4 | > 100 | > 100 | 0.111 | 0.07 | > 100 |  |  | COc1ccc2[nH]c(-c3cccc4c3C(=O)NC4)cc2c1 [Cpd 3, 7-(5-methoxy-1H-indol-2-yl)-2,3-dihydro-isoindol-1-one]
5 | 5.56 | 3.71 | 0.144 | 0.1 | 5.04 |  |  | O=C1NCc2cccc(-c3cc4ccccc4[nH]3)c21 [Cpd 7, 7-(1H-indol-2-yl)-2,3-dihydro-isoindol-1-one]
6 | > 10 | 52.6 | 1.1 | 0.338 | > 100 |  |  | O=C1NCc2cccc(-c3ccc[nH]3)c21 [Cpd 12, 7-(1H-pyrrol-2-yl)-2,3-dihydro-isoindol-1-one]
